Measurements as given in ChEMBL document CHEMBL1153116, “Bio-transformation of artemisinin using soil microbe: Direct C-acetoxylation of artemisinin at C-9 by Penicillium simplissimum” (2010).

Legend:
Type in all cases: functional
[1] = system: IMR-32; experiment: Antitumor activity against human IMR32 cells at 1 uM after 48 hrs by Sulforhodamine assay; settings: IMR-32, 48 h, read-out: GI
[2] = system: A549; experiment: Antitumor activity against human A549 cells at 10 uM after 48 hrs by Sulforhodamine assay; settings: A549, 48 h, read-out: GI
[3] = system: IGROV-1; experiment: Antitumor activity against human IGROV1 cells at 10 uM after 48 hrs by Sulforhodamine assay; settings: IGROV-1, 48 h, read-out: GI
[4] = system: SW-620; experiment: Antitumor activity against human SW620 cells at 20 uM after 48 hrs by Sulforhodamine assay; settings: SW-620, 48 h, read-out: GI
[5] = system: HCT-15; experiment: Antitumor activity against human HCT15 cells at 20 uM after 48 hrs by Sulforhodamine assay; settings: HCT-15, 48 h, read-out: GI
[6] = system: IGROV-1; experiment: Antitumor activity against human IGROV1 cells at 50 uM after 48 hrs by Sulforhodamine assay; settings: IGROV-1, 48 h, read-out: GI
[7] = system: SW-620; experiment: Antitumor activity against human SW620 cells at 50 uM after 48 hrs by Sulforhodamine assay; settings: SW-620, 48 h, read-out: GI
[8] = system: IMR-32; experiment: Antitumor activity against human IMR32 cells at 50 uM after 48 hrs by Sulforhodamine assay; settings: IMR-32, 48 h, read-out: GI
[9] = system: HCT-15; experiment: Antitumor activity against human HCT15 cells at 50 uM after 48 hrs by Sulforhodamine assay; settings: HCT-15, 48 h, read-out: GI
[10] = system: A549; experiment: Antitumor activity against human A549 cells at 50 uM after 48 hrs by Sulforhodamine assay; settings: A549, 48 h, read-out: GI

SMILES	inhibition of growth at 50 µM [6] [%]	inhibition of growth at 50 µM [7] [%]	inhibition of growth at 50 µM [8] [%]	inhibition of growth at 50 µM [9] [%]	inhibition of growth at 50 µM [10] [%]	other results
COc1cccc2c1C(=O)c1c(O)c3c(c(O)c1C2=O)C[C@@](O)(C(=O)CO)C[C@@H]3O[C@H]1C[C@H](N)[C@H](O)[C@H](C)O1 [DOXORUBICIN]						inhibition of growth at 1 µM [1]: 72%
CC(=O)O[C@H]1C(=O)[C@@]2(C)[C@H]([C@H](OC(=O)c3ccccc3)[C@]3(O)C[C@H](OC(=O)[C@H](O)[C@@H](NC(=O)c4ccccc4)c4ccccc4)C(C)=C1C3(C)C)[C@]1(OC(C)=O)CO[C@@H]1C[C@@H]2O [PACLITAXEL]						inhibition of growth at 10 µM [2]: 52%; inhibition of growth at 10 µM [3]: 56%
O=c1[nH]cc(F)c(=O)[nH]1 [FLUOROURACIL]						inhibition of growth at 20 µM [4]: 54%; inhibition of growth at 20 µM [5]: 49%
C[C@@H]1CC[C@H]2[C@@H](C)C(=O)O[C@@H]3O[C@@]4(C)CC[C@@H]1[C@]32OO4 [ARTEMISININ]	26	35	23	31	29	
C[C@@H]1CC[C@H]2[C@@H](C)C(=O)O[C@@H]3O[C@@]4(C)OO[C@@]32[C@H]1C[C@H]4O	3	0	20	28	18	
CC(=O)O[C@H]1C[C@H]2[C@H](C)CC[C@H]3[C@@H](C)C(=O)O[C@@H]4O[C@@]1(C)OO[C@]423	10	0	31	32	28	
